Assay results as given in patent EP0073997A1, “Substituted 2-amino-3,4-dihydro-pyridine derivatives, process for their preparation and their use in medicines” (BAYER AG, priority 1981, dated 1983).

The compounds below were run on Wistar-Ratten (assay: Cholesterol load test: liver cholesterol after oral cholesterol load). Conditions: Dosis 10 mg/kg p.o.; given together with cholesterol in 0,75 % tragacanth suspension; liver cholesterol after 24 h.
Assay type: in vivo
Experimental: Cholesterol- bzw. Fettbelastungstests wurden an nüchternen männlichen oder weiblichen Wistar-Ratten mit einem Körpergewicht zwischen 130-230 g durchgeführt.
Cholesterol-Belastung: • Cholesterol und die zu prüfende Substanz wurden in 0,75 %iger Traganth-Suspension gleichzeitig oral appliziert. Nach 24 h wurden die Tiere getötet und der Cholesterolgehalt in der Leber bestimmt. Cholesterol wurde nach der Liebermann-Burchard-Methode mit der Testkombination von Boehringer Mannheim bestimmt. Kontrolltiere erhielten ein entsprechendes Volumen Cholesterol-Traganth-Suspension ohne Testsubstanz. Zur Kontrolle des Cholesterol-Anstiegs als Folge der Cholesterol-Belastung wurde einer weiteren Kontrollgruppe Traganth-Suspension ohne Cholesterol oral appliziert.
For “6-Methyl-2-(4-phenylpiperazino)-4,5-bis(2-pyrrolidinomethylphenyl)-3,4-dihydropyridin [Beispiel 18]”, the “Verminderung des Lebercholesterinanstiegs im Vergleich zur Kontrolle nach oraler Cholesterinbelastung in Prozent” value was 34,1%. For `Clc1ccc(C2CC(N3CCN(c4ccccc4)CC3)=NC3=C2c2ccccc2CC3)cc1` (stereo not drawn) [Beispiel 1, 4-(4-Chlorphenyl)-2-(4-phenylpiperazino)-3,4,5,6-tetrahydronaphthalino(a)pyridin], the “Verminderung des Lebercholesterinanstiegs im Vergleich zur Kontrolle nach oraler Cholesterinbelastung in Prozent” value was 51,7%. With `Clc1ccc(C2=CC(c3ccc(Cl)cc3)CC(N3CCN(c4ccccc4)CC3)=N2)cc1` (stereo not drawn) [Beispiel 8] the “Verminderung des Lebercholesterinanstiegs im Vergleich zur Kontrolle nach oraler Cholesterinbelastung in Prozent” value was 21,3%. In the case of `CC(=O)OCc1ccc(C2=C(C)N=C(N3CCN(c4ccccc4)CC3)CC2c2ccc(COC(C)=O)cc2)cc1` (stereo not drawn) [Beispiel 9], the “Verminderung des Lebercholesterinanstiegs im Vergleich zur Kontrolle nach oraler Cholesterinbelastung in Prozent” value is reported as 17,7%. `CC1=C(c2cccc(CO)c2)C(c2cccc(CO)c2)CC(N2CCN(c3ccccc3)CC2)=N1` (stereo not drawn) [Beispiel 13] was tested, and the “Verminderung des Lebercholesterinanstiegs im Vergleich zur Kontrolle nach oraler Cholesterinbelastung in Prozent” value was 37,9%. With `CC1=C(c2ccc(N(C)C)cc2)C(c2ccc(CO)cc2)CC(N2CCN(c3ccccc3)CC2)=N1` (stereo not drawn) [Beispiel 16] the “Verminderung des Lebercholesterinanstiegs im Vergleich zur Kontrolle nach oraler Cholesterinbelastung in Prozent” value was 36,7%. `CC1=C(c2ccccc2)C(c2cccc(CN3CCCC3)c2)CC(N2CCN(c3ccccc3)CC2)=N1` (stereo not drawn) [Beispiel 17, 6-Methyl-5-phenyl-2-(4-phenylpiperazino)-4-(3-pyrro-lidinomethylphenyl)-3,4-dihydropyridin] was tested, and the “Verminderung des Lebercholesterinanstiegs im Vergleich zur Kontrolle nach oraler Cholesterinbelastung in Prozent” value was 22,9%. With `CC1=C(c2ccccc2)C(c2cccc(COC(=O)CCCC(=O)O)c2)CC(N2CCN(c3ccccc3)CC2)=N1` (stereo not drawn) [Beispiel 19, 4-(3-(5-Carboxybutyryloxymethyl)-phenyl)-6-methyl-5-phenyl-2-(4-phenylpiperazino)-3,4-dihydropyridin] the “Verminderung des Lebercholesterinanstiegs im Vergleich zur Kontrolle nach oraler Cholesterinbelastung in Prozent” value was 36,3%. With `C=CCC1C(N2CCN(c3ccccc3)CC2)=NC(C)=C(c2ccccc2)C1c1ccccc1` (stereo not drawn) [Beispiel 21] the “Verminderung des Lebercholesterinanstiegs im Vergleich zur Kontrolle nach oraler Cholesterinbelastung in Prozent” value was 34,9%. For `COc1ccc(C2=C(C)N=C(N3CCCC3)C(C)C2c2ccc(OC)cc2)cc1` (stereo not drawn) [Beispiel 25], the “Verminderung des Lebercholesterinanstiegs im Vergleich zur Kontrolle nach oraler Cholesterinbelastung in Prozent” value was 22,6%. For `CC1=C(c2ccc(N(C)C)cc2)C(c2ccc(Cl)cc2)C(CC(=O)OC(C)(C)C)C(N2CCN(c3ccccc3)CC2)=N1` (stereo not drawn) [Beispiel 29], the “Verminderung des Lebercholesterinanstiegs im Vergleich zur Kontrolle nach oraler Cholesterinbelastung in Prozent” value was 12,0%. For `CC1=C(c2ccccc2)C(c2ccccc2)C(CO)C(N2CCN(c3ccccc3)CC2)=N1` (stereo not drawn) [Beispiel 34], the “Verminderung des Lebercholesterinanstiegs im Vergleich zur Kontrolle nach oraler Cholesterinbelastung in Prozent” value was 23,9%.
